Literature values in EP1911850A1, “Method of producing 6-thio-sialylated glycoproteins and glycoconjugates” (CENTRE NATIONAL DE LA RECHERCHE SCIENTIFIQUE (CNRS), priority 2006, dated 2008).

Tested on: a galactosidase
Details: background statement; comparator not stated

- increased stability to digestion by a galactosidase: 200 fold
SMILES: CC(=O)N[C@H]1C(O)O[C@H](CO)[C@@H](O[C@@H]2S[C@H](CO)[C@H](O)[C@H](O)[C@H]2O)[C@@H]1O (stereo partly shown) [5'-Thio-N-acetyllactosamine]
